# Values of other authors, collected in publication PMC12144996 (Acta Pharmaceutica Sinica. B, 2025).
# Tested on: SARS-CoV-2 variants of concern (VOCs)
# Settings: cited from earlier work
structure (smiles),measurement,value
CC(C)C(=O)OC[C@H]1O[C@@](C#N)(c2ccc3c(N)ncnn23)[C@H](O)[C@@H]1O [ATV006],Antiviral activity against SARS-CoV-2 variants of concern,potent antiviral activity
